Target: T1, human PAD4 (Homo sapiens, UniProt Q9UM07)
T1 construct: human PAD4 (NM_012387), A2-P663, was PCR amplified; His-SUMO (N, cleaved yes); made in house; host or cells: E. coli BL21(DE3)
Experiment: In vitro PAD4 BAEE biochemical assay
Conditions: BAEE substrate 3 mM, 5 nM PAD4, 2 mM calcium chloride; geometric mean of multiple experiments
Summary of the method: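 Recombinant human PAD4 (5 nM final) with 2 mM CaCl2 was preincubated with compound 30 min at 25 °C in MOPS buffer pH 7.6, then reacted with 3 mM BAEE for 2 h at 25 °C. After EDTA stop, released ammonia was detected by o-phthalaldehyde/DTT fluorescence (ex 405/em 535 nm); IC50 from four-parameter fit, geometric mean.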

T1 sequence (Q9UM07 2-663): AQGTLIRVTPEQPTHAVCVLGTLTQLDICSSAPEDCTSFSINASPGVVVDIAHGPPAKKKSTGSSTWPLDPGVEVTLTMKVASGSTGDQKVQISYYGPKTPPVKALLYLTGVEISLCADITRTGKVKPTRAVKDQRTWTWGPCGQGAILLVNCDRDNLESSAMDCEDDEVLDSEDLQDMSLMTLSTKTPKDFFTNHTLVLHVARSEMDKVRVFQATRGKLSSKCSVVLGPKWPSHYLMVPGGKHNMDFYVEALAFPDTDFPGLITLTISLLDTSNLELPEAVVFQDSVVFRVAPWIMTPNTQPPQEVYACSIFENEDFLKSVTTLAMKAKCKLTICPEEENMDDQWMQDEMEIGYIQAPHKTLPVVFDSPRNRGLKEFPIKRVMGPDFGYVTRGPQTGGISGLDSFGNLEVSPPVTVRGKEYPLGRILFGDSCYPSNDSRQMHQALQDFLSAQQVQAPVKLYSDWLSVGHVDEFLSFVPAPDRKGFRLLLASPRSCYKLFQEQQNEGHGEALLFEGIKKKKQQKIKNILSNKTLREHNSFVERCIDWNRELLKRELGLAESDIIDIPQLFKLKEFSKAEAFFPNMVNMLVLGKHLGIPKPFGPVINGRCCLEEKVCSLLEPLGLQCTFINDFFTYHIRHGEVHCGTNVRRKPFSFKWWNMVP

| IC50 [µM] | Compound |
| --- | --- |
| 0.094 | COc1cc(C(=O)N2CC[C@@H](OC)[C@@H](N)C2)cc2nc(-c3cc4ccc5nc4n3CCCCC[C@@H]3C[C@H]3C(=O)NC53CC3)n(C)c12 [Example 787, (5~{R},7~{R})-14-[5-[(3~{S}, 4~{R})-3-amino-4-methoxy-piperidine-1-carbonyl]-7-methoxy-1-methyl-benzimidazol-2-yl]spiro[3,13,19-triazatetracyclo[11.5.2.0^ {5,7}.0^{16,20}]icosa-1(18),14,16,19-tetraene-2,1′-cyclopropane]-4-one] |
| 0.053 | C[C@H]1NC(=O)c2cccc(F)c2CCCCCn2c(-c3nc4cc(C(=O)N[C@H]5CNCC[C@@H]5F)c(F)cc4n3C)cc3ccc1nc32 [Example 352, 6-fluoro-2-[(2~{R})-9-fluoro-2-methyl-4-oxo-3,16,22-triazatetracyclo[14.5.2.0^{5,10).0^{19,23}]tricosa-1(22),5,7,9,17,19(23),20-heptaen-17-yl]-~{N}-[(3~{S),4~{S})-4-fluoro-3-piperidyl]-1-methyl-benzimidazole-5-carboxamide] |
| 0.056 | COc1cc(C(=O)N2[C@H]3CC[C@@H]2[C@H](N)C3)cc2nc(-c3cc4ccc5nc4n3CCC/C=C/c3ccccc3C(=O)N[C@@H]5C)n(C)c12 [Example 24, (2~{R},11~{E})-17-[5-[(1~{R},2~{R},4~{S})-2-amino-7-azabicyclo[2.2.1]heptane-7-carbonyl]-7-methoxy-1-methyl-benzimidazol-2-yl]-2-methyl-3,16,22-triazatetracyclo[14.5.2.0^{5,10}.0^{19,23}] tricosa-1(22),5,7,9,11,17,19(23),20-octaen-4-one] |
| 0.029 | C[C@H]1NC(=O)[C@H]2[C@@H](CCCCCn3c(-c4nc5cc(C(=O)N[C@H]6CNCC[C@@H]6F)c(F)cc5n4C)cc4ccc1nc43)C2(F)F (single isomer, unassigned) [Example 381, 2-[(2˜{R},5˜{R},7˜{R})-6,6-difluoro-2-methyl-4-oxo-3,13,19-triazatetracyclo[11.5.2.0^{5,7}.0^{16,20}]icosa-1(19),14,16(20),17-tetraen-14-yl]-6-fluoro-˜{N}-[(3˜{S},4˜{S})-4-fluoro-3-piperidyl]-1-methyl-benzimidazole-5-carboxamide] |
| 0.072 | COc1cc(C(=O)N2C[C@H](N)[C@@H]3CC[C@H]2C3)cc2nc(-c3cc4ccc5nc4n3CCCCCOC(C)(C)C(=O)N[C@@H]5C)n(C3CC3)c12 [Example 905, (11~{R})-17-[5-[(1~{S},4~{R}, 5~{R})-4-amino-2-azabicyclo [3.2.1]octane-2-carbonyl]-1-cyclopropyl-7-methoxy-benzimidazol-2-yl]-8,8,11-trimethyl-7-oxa-1,10,19-triazatricyclo[10.5.2.0^{15,18}] nonadeca-12(19), 13,15(18),16-tetraen-9-one] |
| 0.113 | COc1cc(C(=O)N2[C@H]3CC[C@@H]2[C@H](N)C3)cc2nc(-c3cc4ccc5nc4n3CCCCCCCC(=O)Nc3ncccc3-5)n(C)c12 [Example 89, 18-[5-[(1~{R},2~{R},4~{S})-2-amino-7-azabicyclo[2.2.1]heptane-7-carbonyl]-7-methoxy-1-methyl-benzimidazol-2-yl]-6,8,17,23-tetrazatetracyclo[15.5.2.0^{2,7}.0^{20,24}] tetracosa-1(23),2,4,6,18,20(24),21-heptaen-9-one] |
| 0.307 | CO[C@@H]1CCN(C(=O)c2cc3c4c(c2)nc(-c2cc5ccc6nc5n2CCCCC[C@@H]2C[C@H]2C(=O)N[C@@H]6C)n4CCO3)C[C@@H]1N [Example 729, (2~{R},5~{R},7~{R})-14-[6-[(3~{S},4~{R})-3-amino-4-methoxy-piperidine-1-carbonyl]-9-oxa-1,3-diazatricyclo [6.3.1.0^{4,12}]dodeca-2,4,6,8(12)-tetraen-2-yl]-2-methyl-3,13,19-triazatetracyclo[11.5.2.0^ {5,7}.0^{16,20}] icosa-1(19),14,16(20),17-tetraen-4-one] |
| 0.012 | COc1cc(C(=O)N2[C@H]3CC[C@@H]2[C@H](N)C3)cc2nc(-c3cc4ccc5nc4n3C[C@H]3C[C@H]3COCCC(=O)N[C@@H]5C)c(C)n12 (single isomer, unassigned) [Example 327, (3˜{S},5˜{R},12˜{R})-18-[7-[(1˜{R},2˜{R},4˜{S})-2-amino-7-azabicyclo[2.2.1]heptane-7-carbonyl]-5-methoxy-3-methyl-imidazo[1,2-a]pyridin-2-yl]-12-methyl-7-oxa-1,11,20-triazatetracyclo[11.5.2.0^{3,5}.0^{16,19}]icosa-13(20),14,16(19),17-tetraen-10-one] |
| 0.03 | COc1cc(C(=O)N2C[C@H](N)[C@@H]3CC[C@H]2C3)cc2nc(-c3cc4ccc5c(F)c4n3CC(F)(F)CCC[C@@H]3C[C@H]3C(=O)N[C@@H]5C)n(C)c12 [Example 437, (2~{R},5~{R},7~{R})-14-[5-[(1~{S},4~{R},5~{R})-4-amino-2-azabicyclo[3.2.1]octane-2-carbonyl]-7-methoxy-1-methyl-benzimidazol-2-yl]-11,11,19-trifluoro-2-methyl-3,13-diazatetracyclo[11.5.2.0^{5,7}.0^{16,20}] icosa-1(19),14,16(20),17-tetraen-4-one] |
| 0.04 | COc1cc(C(=O)N2[C@H]3CC[C@@H]2[C@H](N)C3)cc2nc(-c3cc4ccc5nc4n3C/C=C\CCCCS(=O)(=O)N[C@@H]5C)n(C)c12 [Example 23, [(1˜{R},2˜{R},4˜{S})-2-amino-7-azabicyclo[2.2.1]heptan-7-yl]-[7-methoxy-1-methyl-2-[(11˜{R})-11-methyl-9,9-dioxo-9$1^6-thia-1,10,19-triazatricyclo[10.5.2.0^{15,18}]nonadeca-3,12(19),13,15(18),16-pentaen-17-yl]benzimidazol-5-yl]methanone] |
| 0.056 | COc1cc(C(=O)N2C[C@H](N)[C@@H]3CC[C@H]2C3)cc2nc(-c3cc4ccc5nc4n3CCCCCc3cc(C(F)F)ccc3C(=O)N[C@@H]5C)n(C)c12 [Example 896, (2~{R})-17-[5-[(1~{S),4~{R},5~ {R})-4-amino-2-azabicyclo [3.2.1]octane-2-carbonyl]-7-methoxy-1-methyl-benzimidazol-2-yl]-8-(difluoromethyl)-2-methyl-3,16,22-triazatetracyclo [14.5.2.0^{5,10}.0^{19,23}] tricosa-1(22),5(10),6,8,17,19(23), 20-heptaen-4-one] |
| 0.057 | COc1cc(C(=O)N[C@H]2CNC[C@@H](C(F)F)C2)cc2nc(-c3cc4ccc5nc4n3CC(F)(F)CCC[C@@H]3C[C@H]3C(=O)N[C@@H]5C)n(C)c12 [Example 633, 2-[(2~{R},5~{R},7~{R})-11,11-difluoro-2-methyl-4-oxo-3,13,19-triazatetracyclo[11.5.2.0^ {5,7}.0^{16,20}]icosa-1(19),14,16(20), 17-tetraen-14-yl]- ~{N}-[(3~{R},5~{S})-5-(difluoromethyl)-3-piperidyl]-7-methoxy-1-methyl-benzimidazole-5-carboxamide] |

| Compound | IC50 [µM] |
| --- | --- |
| C[C@H]1NC(=O)[C@@H]2C[C@H]2CCCCCn2c(-c3nc4cc(C(=O)N[C@H]5CNCC[C@@H]5F)c(F)cc4n3[C@H]3C[C@@H]3C)cc3ccc1nc32 [Example 413, 6-fluoro-˜{N}-[(3˜{S},4˜{S})-4-fluoro-3-piperidyl]-1-[(1˜{S},2˜{S})-2-methylcyclopropyl]-2-[(2˜{R},5˜{R},7˜{R})-2-methyl-4-oxo-3,13,19-triazatetracyclo[11.5.2.0^{5,7}.0^{16,20}]icosa-1(19),14,16(20),17-tetraen-14-yl]benzimidazole-5-carboxamide] | 0.037 |
